According to paper PMC9532703, “A novel small molecule RK-019 inhibits FGFR2-amplification gastric cancer cell proliferation and induces apoptosis in vitro and in vivo” (Frontiers in Pharmacology, 2022):

Key:
Test in all cases: Kinase selectivity panel
Assay type in all cases: biochemical
Settings in all cases: read-out: Inhibition(%) @ 1 µM RK-019
[1] = molecular target: T1, PRK1(h) (Homo sapiens, UniProt Q16512)
T1 construct: purchased Eurofins Discovery Services (KinaseProfiler)
Description: (§1) Median-inhibitory concentration (IC50) and inhibition ratio of kinases by RK-019 was assessed by Eurofins Discovery Services (Dundee, United Kingdom) using the ATP-site competition binding assay in vitro. Firstly, gradient concentration of RK-019 against FGFRs, including FGFR1, FGFR2, FGFR3, and FGFR4, were tested. IC50 value was calculate by the GraphPad Prism software (v8.4.3, GraphPad Software, California, United States). Then, to measure the selectivity prolife of RK-019, a panel of 422 recombinant human kinases was screened at a concentration of 1 µM RK-019. Kinase MAP was drawn by webtools from Cell Signaling Technology, Inc. (www.cellsignal.com).

[2] = molecular target: T2, CDK13/cyclinK(h) (Homo sapiens, UniProt Q14004)
T2 construct: purchased Eurofins Discovery Services (KinaseProfiler)
Description: as §1

[3] = molecular target: T3, BIKe(h) (Homo sapiens, UniProt Q9NSY1)
T3 construct: purchased Eurofins Discovery Services (KinaseProfiler)
Description: as §1

[4] = molecular target: T4, CK2(h) (Homo sapiens, UniProt P68400)
T4 construct: purchased Eurofins Discovery Services (KinaseProfiler)
Description: as §1

[5] = molecular target: T5, Abl(T315I)(h) (Homo sapiens, UniProt P00519, T315I)
T5 construct: purchased Eurofins Discovery Services (KinaseProfiler)
Description: as §1

[6] = molecular target: T6, MAP4K3(h) (Homo sapiens, UniProt Q8IVH8)
T6 construct: purchased Eurofins Discovery Services (KinaseProfiler)
T6 sequence (Q8IVH8 whole entry): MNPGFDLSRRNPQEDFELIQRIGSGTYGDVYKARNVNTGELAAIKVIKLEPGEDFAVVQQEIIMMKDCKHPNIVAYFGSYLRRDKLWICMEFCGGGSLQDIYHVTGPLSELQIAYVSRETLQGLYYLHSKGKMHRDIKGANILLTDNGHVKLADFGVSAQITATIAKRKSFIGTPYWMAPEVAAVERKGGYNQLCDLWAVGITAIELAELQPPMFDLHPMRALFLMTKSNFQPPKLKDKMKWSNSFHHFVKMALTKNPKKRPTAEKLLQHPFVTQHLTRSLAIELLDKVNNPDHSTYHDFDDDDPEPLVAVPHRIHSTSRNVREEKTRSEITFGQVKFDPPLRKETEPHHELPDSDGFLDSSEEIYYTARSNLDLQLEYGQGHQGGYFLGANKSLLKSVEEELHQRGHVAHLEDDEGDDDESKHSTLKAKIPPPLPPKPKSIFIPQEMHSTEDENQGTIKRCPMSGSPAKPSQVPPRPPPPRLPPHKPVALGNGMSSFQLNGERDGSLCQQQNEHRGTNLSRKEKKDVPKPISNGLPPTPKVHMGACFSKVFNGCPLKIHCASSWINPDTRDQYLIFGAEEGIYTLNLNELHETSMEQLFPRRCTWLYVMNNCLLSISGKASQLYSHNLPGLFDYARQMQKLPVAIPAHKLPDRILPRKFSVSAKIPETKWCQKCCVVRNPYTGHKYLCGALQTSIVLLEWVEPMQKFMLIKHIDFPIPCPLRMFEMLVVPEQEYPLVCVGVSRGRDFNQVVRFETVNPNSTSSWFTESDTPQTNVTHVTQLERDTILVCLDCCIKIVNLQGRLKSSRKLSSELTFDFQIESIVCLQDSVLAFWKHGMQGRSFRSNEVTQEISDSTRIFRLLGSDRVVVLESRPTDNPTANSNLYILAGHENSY
Description: as §1

[7] = molecular target: T7, CDK9/cyclin T1(h) (Homo sapiens, UniProt P50750)
T7 construct: purchased Eurofins Discovery Services (KinaseProfiler)
Description: as §1

[8] = molecular target: T8, MST3(h) (Homo sapiens, UniProt Q9Y6E0)
T8 construct: purchased Eurofins Discovery Services (KinaseProfiler)
T8 sequence (Q9Y6E0 whole entry): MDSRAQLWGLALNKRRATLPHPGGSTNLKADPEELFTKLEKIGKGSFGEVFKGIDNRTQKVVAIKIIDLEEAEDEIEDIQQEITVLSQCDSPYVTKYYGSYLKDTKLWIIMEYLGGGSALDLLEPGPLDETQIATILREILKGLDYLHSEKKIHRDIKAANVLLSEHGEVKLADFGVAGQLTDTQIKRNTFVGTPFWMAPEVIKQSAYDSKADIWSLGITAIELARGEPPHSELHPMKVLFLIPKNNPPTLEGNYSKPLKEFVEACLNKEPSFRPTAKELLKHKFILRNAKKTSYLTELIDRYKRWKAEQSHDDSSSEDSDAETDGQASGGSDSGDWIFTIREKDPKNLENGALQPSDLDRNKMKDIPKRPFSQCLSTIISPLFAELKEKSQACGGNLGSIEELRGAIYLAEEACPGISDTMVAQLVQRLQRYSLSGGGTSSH
Description: as §1

[9] = molecular target: T9, TNIK(h) (Homo sapiens, UniProt Q9UKE5)
T9 construct: purchased Eurofins Discovery Services (KinaseProfiler)
Description: as §1

[10] = molecular target: T10, EphA5(h) (Homo sapiens, UniProt P54756)
T10 construct: purchased Eurofins Discovery Services (KinaseProfiler)
Description: as §1

[11] = molecular target: T11, MST2(h) (Homo sapiens, UniProt Q13188)
T11 construct: purchased Eurofins Discovery Services (KinaseProfiler)
T11 sequence (Q13188 whole entry): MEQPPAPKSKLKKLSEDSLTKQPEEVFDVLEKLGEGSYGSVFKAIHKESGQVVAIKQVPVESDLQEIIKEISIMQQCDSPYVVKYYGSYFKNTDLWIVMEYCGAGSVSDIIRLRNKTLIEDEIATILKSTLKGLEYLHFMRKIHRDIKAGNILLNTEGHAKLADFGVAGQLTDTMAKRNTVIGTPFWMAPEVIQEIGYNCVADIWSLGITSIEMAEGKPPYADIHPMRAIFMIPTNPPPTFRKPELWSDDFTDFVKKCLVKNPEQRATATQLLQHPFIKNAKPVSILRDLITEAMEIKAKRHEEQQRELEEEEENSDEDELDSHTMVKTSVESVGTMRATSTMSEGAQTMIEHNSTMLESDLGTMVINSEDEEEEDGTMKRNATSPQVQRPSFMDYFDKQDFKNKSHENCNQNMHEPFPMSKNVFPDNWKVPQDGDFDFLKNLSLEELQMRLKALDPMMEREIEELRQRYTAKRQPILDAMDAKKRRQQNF
Description: as §1

[12] = molecular target: T12, JNK3(h) (Homo sapiens, UniProt P53779)
T12 construct: purchased Eurofins Discovery Services (KinaseProfiler)
T12 sequence (P53779 whole entry): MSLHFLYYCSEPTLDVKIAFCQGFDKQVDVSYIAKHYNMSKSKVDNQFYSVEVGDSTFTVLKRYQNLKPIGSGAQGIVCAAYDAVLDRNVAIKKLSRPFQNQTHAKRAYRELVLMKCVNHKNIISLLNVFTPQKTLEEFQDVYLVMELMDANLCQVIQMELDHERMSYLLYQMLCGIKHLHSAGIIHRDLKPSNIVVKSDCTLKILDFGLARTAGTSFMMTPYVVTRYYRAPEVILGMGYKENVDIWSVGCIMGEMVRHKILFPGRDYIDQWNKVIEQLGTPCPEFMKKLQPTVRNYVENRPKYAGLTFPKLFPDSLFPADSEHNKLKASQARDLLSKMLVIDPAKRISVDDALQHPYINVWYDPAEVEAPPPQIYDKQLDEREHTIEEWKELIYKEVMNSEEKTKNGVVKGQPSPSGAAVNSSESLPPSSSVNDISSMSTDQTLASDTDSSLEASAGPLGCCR
Description: as §1

[13] = molecular target: T13, Abl (H396P) (h) (Homo sapiens, UniProt P00519, H396P)
T13 construct: purchased Eurofins Discovery Services (KinaseProfiler)
Description: as §1

[14] = molecular target: T14, PDHK4(h) (Homo sapiens, UniProt Q16654)
T14 construct: purchased Eurofins Discovery Services (KinaseProfiler)
Description: as §1

[15] = molecular target: T15, PAK6(h) (Homo sapiens, UniProt Q9NQU5)
T15 construct: purchased Eurofins Discovery Services (KinaseProfiler)
Description: as §1

[16] = molecular target: T16, IRAK1(h) (Homo sapiens, UniProt P51617)
T16 construct: purchased Eurofins Discovery Services (KinaseProfiler)
Description: as §1

[17] = molecular target: T17, ATM(h) (Homo sapiens, UniProt Q13315)
T17 construct: purchased Eurofins Discovery Services (KinaseProfiler)
Description: as §1

[18] = molecular target: T18, Hck(h) (Homo sapiens, UniProt P08631)
T18 construct: purchased Eurofins Discovery Services (KinaseProfiler)
Description: as §1

[19] = molecular target: T19, CDK18/cyclinY(h) (Homo sapiens, UniProt Q07002)
T19 construct: purchased Eurofins Discovery Services (KinaseProfiler)
T19 sequence (Q07002 whole entry): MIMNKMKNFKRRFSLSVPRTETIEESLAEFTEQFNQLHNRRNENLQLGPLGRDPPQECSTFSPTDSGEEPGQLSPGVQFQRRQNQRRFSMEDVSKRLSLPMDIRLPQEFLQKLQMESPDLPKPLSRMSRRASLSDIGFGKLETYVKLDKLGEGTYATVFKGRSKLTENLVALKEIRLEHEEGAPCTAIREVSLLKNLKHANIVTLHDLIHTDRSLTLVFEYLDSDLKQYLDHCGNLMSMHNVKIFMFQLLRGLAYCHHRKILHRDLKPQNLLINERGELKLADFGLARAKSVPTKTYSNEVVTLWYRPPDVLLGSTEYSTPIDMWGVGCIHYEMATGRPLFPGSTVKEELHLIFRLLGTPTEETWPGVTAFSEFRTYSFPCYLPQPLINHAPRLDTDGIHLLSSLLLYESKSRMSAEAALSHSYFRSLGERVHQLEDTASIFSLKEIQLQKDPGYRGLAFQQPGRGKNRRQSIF
T19 sequence (Q8ND76 whole entry partner): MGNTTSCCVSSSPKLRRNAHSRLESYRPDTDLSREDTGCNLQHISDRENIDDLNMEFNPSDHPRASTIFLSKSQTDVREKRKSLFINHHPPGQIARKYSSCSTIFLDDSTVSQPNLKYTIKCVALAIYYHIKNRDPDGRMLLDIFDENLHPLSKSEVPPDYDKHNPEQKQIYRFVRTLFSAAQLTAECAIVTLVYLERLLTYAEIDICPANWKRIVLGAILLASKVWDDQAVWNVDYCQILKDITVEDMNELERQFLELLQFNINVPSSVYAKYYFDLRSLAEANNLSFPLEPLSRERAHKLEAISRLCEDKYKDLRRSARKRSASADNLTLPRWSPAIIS
Description: as §1

[20] = molecular target: T20, Abl(Y253F)(h) (Homo sapiens, UniProt P00519, Y253F)
T20 construct: purchased Eurofins Discovery Services (KinaseProfiler)
Description: as §1

[21] = molecular target: T21, MAPK2(h) (Homo sapiens, UniProt P28482)
T21 construct: purchased Eurofins Discovery Services (KinaseProfiler)
Description: as §1

[22] = molecular target: T22, STK25(h) (Homo sapiens, UniProt O00506)
T22 construct: purchased Eurofins Discovery Services (KinaseProfiler)
T22 sequence (O00506 whole entry): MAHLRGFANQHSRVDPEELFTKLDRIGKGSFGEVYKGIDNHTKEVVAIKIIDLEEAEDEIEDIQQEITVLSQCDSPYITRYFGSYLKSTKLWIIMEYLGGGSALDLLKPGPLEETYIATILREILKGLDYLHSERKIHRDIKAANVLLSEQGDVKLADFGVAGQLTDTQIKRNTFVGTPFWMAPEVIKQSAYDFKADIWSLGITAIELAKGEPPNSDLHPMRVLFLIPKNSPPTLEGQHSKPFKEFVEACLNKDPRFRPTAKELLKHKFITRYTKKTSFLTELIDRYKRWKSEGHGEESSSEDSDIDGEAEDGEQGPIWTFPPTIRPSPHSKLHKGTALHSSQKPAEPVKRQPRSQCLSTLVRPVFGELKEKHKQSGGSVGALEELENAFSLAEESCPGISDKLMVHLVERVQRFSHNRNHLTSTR
Description: as §1

[23] = molecular target: T23, Met(D1246H)(h) (Homo sapiens, UniProt P08581, D1228H)
T23 construct: purchased Eurofins Discovery Services (KinaseProfiler)
Description: as §1

[24] = molecular target: T24, SGK2(h) (Homo sapiens, UniProt Q9HBY8)
T24 construct: purchased Eurofins Discovery Services (KinaseProfiler)
T24 sequence (Q9HBY8 whole entry): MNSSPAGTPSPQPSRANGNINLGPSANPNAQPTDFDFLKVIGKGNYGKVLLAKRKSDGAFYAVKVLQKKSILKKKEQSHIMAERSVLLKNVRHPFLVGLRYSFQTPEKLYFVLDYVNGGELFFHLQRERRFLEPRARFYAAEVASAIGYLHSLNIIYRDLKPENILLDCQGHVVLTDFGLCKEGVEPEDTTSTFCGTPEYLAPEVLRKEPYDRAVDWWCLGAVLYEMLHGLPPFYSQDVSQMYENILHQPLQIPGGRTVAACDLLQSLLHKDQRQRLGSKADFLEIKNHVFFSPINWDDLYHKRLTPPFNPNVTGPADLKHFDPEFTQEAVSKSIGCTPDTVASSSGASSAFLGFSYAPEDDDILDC
Description: as §1

[25] = molecular target: T25, JAK3(h) (Homo sapiens, UniProt P52333)
T25 construct: purchased Eurofins Discovery Services (KinaseProfiler)
T25 sequence (P52333 whole entry): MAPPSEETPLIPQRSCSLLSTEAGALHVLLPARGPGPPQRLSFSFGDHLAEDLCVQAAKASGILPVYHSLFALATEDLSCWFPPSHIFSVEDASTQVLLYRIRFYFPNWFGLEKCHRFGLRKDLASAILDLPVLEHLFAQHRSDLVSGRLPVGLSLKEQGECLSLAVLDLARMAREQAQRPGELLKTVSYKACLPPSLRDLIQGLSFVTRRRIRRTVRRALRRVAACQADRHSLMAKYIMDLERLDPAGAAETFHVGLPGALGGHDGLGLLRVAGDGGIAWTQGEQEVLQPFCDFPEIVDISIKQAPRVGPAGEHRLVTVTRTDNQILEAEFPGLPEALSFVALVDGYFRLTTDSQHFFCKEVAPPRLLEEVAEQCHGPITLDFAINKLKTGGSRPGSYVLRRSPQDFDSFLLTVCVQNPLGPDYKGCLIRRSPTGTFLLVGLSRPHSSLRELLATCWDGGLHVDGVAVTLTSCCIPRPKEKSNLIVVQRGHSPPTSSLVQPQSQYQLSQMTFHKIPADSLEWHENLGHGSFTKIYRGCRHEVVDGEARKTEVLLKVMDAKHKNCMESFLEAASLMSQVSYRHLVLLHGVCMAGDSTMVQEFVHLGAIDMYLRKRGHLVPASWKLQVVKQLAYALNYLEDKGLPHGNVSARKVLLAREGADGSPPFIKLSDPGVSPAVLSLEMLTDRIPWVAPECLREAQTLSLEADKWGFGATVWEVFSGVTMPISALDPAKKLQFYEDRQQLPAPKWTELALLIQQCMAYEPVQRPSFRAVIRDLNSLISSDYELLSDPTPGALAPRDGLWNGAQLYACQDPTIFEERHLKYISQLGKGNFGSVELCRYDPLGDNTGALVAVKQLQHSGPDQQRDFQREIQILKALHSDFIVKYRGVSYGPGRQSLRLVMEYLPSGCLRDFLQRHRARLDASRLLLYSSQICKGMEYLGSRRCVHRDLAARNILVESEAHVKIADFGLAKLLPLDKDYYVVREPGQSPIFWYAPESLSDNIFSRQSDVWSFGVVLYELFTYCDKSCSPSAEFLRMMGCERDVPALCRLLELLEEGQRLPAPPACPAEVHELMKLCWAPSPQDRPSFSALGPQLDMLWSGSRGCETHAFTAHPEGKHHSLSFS
Description: as §1

[26] = molecular target: T26, EGFR(L858R)(h) (Homo sapiens, UniProt P00533, L858R)
T26 construct: purchased Eurofins Discovery Services (KinaseProfiler)
Description: as §1

[27] = molecular target: T27, CDKL4(h) (Homo sapiens, UniProt Q5MAI5)
T27 construct: purchased Eurofins Discovery Services (KinaseProfiler)
Description: as §1

[28] = molecular target: T28, KDR(h) (Homo sapiens, UniProt P35968)
T28 construct: purchased Eurofins Discovery Services (KinaseProfiler)
Description: as §1

[29] = molecular target: T29, PI3 Kinase (p110a(H1047R)/p85a)(h) (Homo sapiens, UniProt P42336, H1047R)
T29 construct: purchased Eurofins Discovery Services (KinaseProfiler)
Description: as §1

[30] = molecular target: T30, eEF-2K(h) (Homo sapiens, UniProt O00418)
T30 construct: purchased Eurofins Discovery Services (KinaseProfiler)
Description: as §1

[31] = molecular target: T31, Pim-1(h) (Homo sapiens, UniProt P11309)
T31 construct: purchased Eurofins Discovery Services (KinaseProfiler)
Description: as §1

[32] = molecular target: T32, EGFR(T790M,L858R)(h) (Homo sapiens, UniProt P00533, L858R/T790M)
T32 construct: purchased Eurofins Discovery Services (KinaseProfiler)
Description: as §1

[33] = molecular target: T33, PKD3(h) (Homo sapiens, UniProt O94806)
T33 construct: purchased Eurofins Discovery Services (KinaseProfiler)
Description: as §1

[34] = molecular target: T34, CLK3(h) (Homo sapiens, UniProt P49761)
T34 construct: purchased Eurofins Discovery Services (KinaseProfiler)
Description: as §1

[35] = molecular target: T35, BMPR2(h) (Homo sapiens, UniProt Q13873)
T35 construct: purchased Eurofins Discovery Services (KinaseProfiler)
Description: as §1

[36] = molecular target: T36, PKAcβ(h) (Homo sapiens, UniProt P22694)
T36 construct: purchased Eurofins Discovery Services (KinaseProfiler)
Description: as §1

COc1cc(OC)cc(N(CCN[C@H](C)CO)c2ccc3ncc(-c4cnn(C)c4)c(=O)n3c2)c1 [RK-019, (R)-7-((3,5-dimethoxyphenyl) (2-((1-hydroxypropan-2-yl)amino)ethyl)amino)-3-(1-methyl-1H-pyrazol-4-yl)-4H-pyrido [1,2-a]pyrimidin-4-one]
activity at 1 µM [1]: 105% | activity at 1 µM [2]: 109% | activity at 1 µM [3]: 93% | activity at 1 µM [4]: 112% | activity at 1 µM [5]: 66% | activity at 1 µM [6]: 132% | activity at 1 µM [7]: 99% | activity at 1 µM [8]: 122% | activity at 1 µM [9]: 42% | activity at 1 µM [10]: 45% | activity at 1 µM [11]: 97% | activity at 1 µM [12]: 91% | activity at 1 µM [13]: 49% | activity at 1 µM [14]: 93% | activity at 1 µM [15]: 96% | activity at 1 µM [16]: 103% | activity at 1 µM [17]: 105% | activity at 1 µM [18]: 27% | activity at 1 µM [19]: 96% | activity at 1 µM [20]: 54% | activity at 1 µM [21]: 115% | activity at 1 µM [22]: 66% | activity at 1 µM [23]: 89% | activity at 1 µM [24]: 79% | activity at 1 µM [25]: 97% | activity at 1 µM [26]: 114% | activity at 1 µM [27]: 90% | activity at 1 µM [28]: 9% | activity at 1 µM [29]: 100% | activity at 1 µM [30]: 97% | activity at 1 µM [31]: 111% | activity at 1 µM [32]: 92% | activity at 1 µM [33]: 99% | activity at 1 µM [34]: 102% | activity at 1 µM [35]: 116% | activity at 1 µM [36]: 98%
